US12662688B2, “Site-selective deuteration of amino acids through dual protein catalysis” (Wisconsin Alumni Research Foundation, priority 2022, dated 2026)

Legend:
DsaD/E system = assay: Two-step Cα/Cβ deuteration then Cα deuterium washout with DsaD in H2O; format: biochemical, Streptomyces scopuliridis; details: for deuterium incorporation at Cβ: lower substrate loading (10 mM), after Cα washout
Description: (§1) General procedure for milligram-scale biocatalytic deuteration: A 4-dram scintillation vial was charged with amino acid (10-20 mM final concentration), Na3PO4 buffer pD 8.4 (50 mM final concentration), PLP (100 μM final concentration), DsaD clarified cell lysate (2.5% v/v), DsaE clarified cell lysate (if applicable) (2.5% v/v), and D2O (or dH2O) to the appropriate final volume. The reaction vessel was placed in an incubator at 37° C. for 16 h. Reaction progress was monitored by UPLC-MS. After reaction completion, the reaction mixture was quenched with an equivalent volume of acetone and centrifuged (4,000 rpm, 10 min) to remove denatured protein. Supernatant was transferred to a clean beaker, the decanted supernatant was concentrated to remove acetone by rotary evaporation and loaded onto a preparative reverse-phase C18 column pre-equilibrated with water. Purification was performed via gradient elution on an Isolera One Flash Purification system (Biotage). Fractions bearing product (confirmed by UPLC-MS sampling of fraction tubes) were pooled and dried by rotary evaporation. The product was then resuspended in a minimal quantity of water, transferred to a pre-weighed 20 mL vial, frozen, and lyophilized.
An initial reaction was performed with DsaD and DsaE to produce Cα,Cβ-deuterated L-Leu-2,3,3-d3 (25). Following reaction quenching with acetone, centrifugation to remove protein products, and removal of acetone and D2O via rotary evaporation, the dry crude product mixture was subjected to standard reaction conditions with DsaD in water. This reaction led to washout of the Cα deuterium, providing exclusively Cβ-deuterated L-Leu-3,3-d2 (44) with high levels of deuterium incorporation at Cβ (FIG. 5, 86% D incorporation and 98% ee). The site of H/D exchange in these reactions is dictated by the presence or absence of DsaE from the reaction conditions, enabling control of amino acid deuteration patterns.
We performed Cα/Cβ deuteration on a panel of amino acids, quenched the reactions and resubjected the crude product to Cα deuterium washout with DsaD in H2O. […]

DsaD/E complex [1] = assay: Analytical-scale Cα/Cβ H/D exchange with purified DsaD and DsaE; format: biochemical, Streptomyces scopuliridis; details: 10 mM substrate, 5 μM DsaD, 50 μM DsaE (10:1), 37° C., 8 h
Description: FIGS. 3A-3C. Optimization of H/D exchange reactions and evaluation of the substrate scope. FIG. 3A. Optimization of Cβ-deuteration by increasing equivalents of partner protein DsaE. FIG. 3B. Evaluation of substrate scope of dual-protein-catalyzed Cα/Cβ deuteration under optimized conditions. FIG. 3C. UV-visible spectroscopy used to evaluate non-native substrate binding to DsaD. Reaction conditions: 10 mM amino acid substrate, 50 μM DsaE, 5 μM DsaD (10:1), 50 mM sodium phosphate (pD 8.4), 0.1 mM PLP, D2O, 37° C., 8 h. Reactions performed in duplicate, and percentage isotope incorporation is reported as the average of the replicates.
General procedure analytical scale deuteration reactions: α/β deuteration reactions were performed as follows. A 1 mL Eppendorf tube was charged with amino acid (10-20 mM final concentration), Na3PO4 buffer pD 8.4 (50 mM final concentration), PLP (100 μM final concentration), purified enzymes or appropriate lysate and D2O and to the appropriate final volume (typically 50 μL). Reactions were carried out at 37° C. for 8 h and quenched by the addition of 3 volumes of acetonitrile. Precipitated biomolecules were pelleted by centrifugation (16,000×g, 10 min) and samples were processed as described below.
(§2) Marfey's derivatization of analytical scale reactions: Derivatization of the resulting analytical scale product mixture (to increase overall signal and enable reverse phase chromatographic analysis) was achieved by treatment with Marfey's reagent^2 (1-fluoro-2-4-dinitrophenyl-5-L-alanine amide, L-FDAA) using the following protocol. 25 μL of quenched reaction mix (final amine concentration, 1.6 mM) was added to an Eppendorf tube with 50 μL of 15 mM NaHCO3 (final concentration, 5 mM) and 75 μL of 5 mM L-FDAA (final concentration, 2.5 mM). Derivatization reactions were carried out for 10-12 h before quenching with 150 μL of 60 mM HCl dissolved in acetonitrile. Final reaction analysis was carried out by UPLC-DAD-MS and quantitation as described below.
(§3) Quantitation of deuteration in analytical scale reactions: Deuteration reactions were analyzed by UPLC-DAD-MS with single ion recording (SIR) channels set to record a spectrum with the appropriate isotopic mass in positive mode. The area under the curve of recorded SIR peaks was obtained and normalized to account for natural isotopic abundance distributions (e.g. ^13C, ^15N, ^2H, ^34S, etc). Percent deuterium incorporation was calculated by the formula below. These measurements were carried out in an iterative fashion to measure Cα deuteration and Cβ deuteration.

DsaD [2] = target: T1, DsaD (Streptomyces scopuliridis, UniProt A0A0D5CCB2); assay: UV-vis spectroscopy of amino acid binding to DsaD; details: 20 μM DsaD, pH 8.0, 25° C.
Description: UV-Vis Spectroscopy: Data were collected between 600 and 300 nm on a UV-2600 Shimadzu spectrophotometer (Shimadzu, Kyoto, Japan) with a semi-micro quartz cuvette (Starna Cells, Atascadero, California, USA) at 25° C. DsaD stock solutions were diluted to 20 μM in 50 mM sodium phosphate pH 8.0. For observation of substrate binding, amino acids were added at concentrations ranging from 2.5-10 mM. Spectra from 600-300 nm were collected after a 2-minute incubation period. Amino acid stocks were prepared as 100 mM stocks in deionized water.

DsaD/E complex [3] = assay: Analytical-scale Cα/Cβ H/D exchange with purified DsaD and DsaE; format: biochemical, Streptomyces scopuliridis; details: 1 mM Ile, 0.05 mol % DsaD and DsaE (1:1), D2O, 37° C., 8 h
DsaD [4] = target: T1, DsaD; assay: H/D exchange of L-Ile with DsaD alone (steady-state kinetics); format: biochemical
Description: (§4) FIGS. 2A-2E. Steady-state kinetic analysis of H/D exchange by the Ile epimerization system. FIG. 2A. Steady-state kinetic analysis describing Cβ-deuteration^a of L-Ile under varied equivalents of partner enzyme DsaE. FIG. 2B. Steady-state kinetic analysis of Cβ-deuteration rates^a at a constant 1 mM L-Ile, measured against increasing equivalents of DsaE. FIG. 2C. Steady-state kinetic analysis of Cα-deuteration^a of L-Ile in the presence and absence of partner protein DsaE. FIG. 2D. Proposed mechanism of selective deuterium incorporation at Cα and Cβ catalyzed by dual protein catalysis. FIG. 2E. UV-visible spectrum of DsaD in the absence and presence of L-Ile.^a Measurement of initial rates was performed in duplicate at 24° C. […] Following quench with MeCN, crude reaction products were subjected to functionalization with Marfey's reagent (L-FDAA) to enable analysis by reverse-phase chromatography and quantification of isotope incorporation by mass spectrometry.
(§5) Kinetic analysis of biocatalytic L-Ile deuteration: Initial rates of α- or β-deuteration were obtained by means of end-point assay using the quantitation protocol for analytical scale reactions as described above. […] Michaelis constants (KM) for α- and β-deuteration of L-Ile were determined using the concentration range of 0.1-10 mM L-Ile using 3 μM DsaD. […]

DsaD/E complex [5] = assay: Preparative-scale Cα/Cβ-deuteration with DsaD and DsaE clarified lysates in D2O; format: biochemical, Streptomyces scopuliridis
Description: (§6) FIG. 5. ^1H NMR analysis of site-selective deuteration of L-Leu. Reaction conditions: 20 mM L-Leu 2.5% v/v DsaD clarified lysate, 2.5% v/v DsaE clarified lysate (when needed), 50 mM sodium phosphate (pD 8.4), 0.1 mM PLP, D2O (99.9% D).
(§7) FIG. 8. Preparative-scale and site-selective deuteration of amino acids. Conditions: 10-20 mM amino acid, 2.5% v/v DsaD clarified lysate, 2.5% v/v DsaE clarified lysate, 50 mM sodium phosphate (pD 8.4), 0.1 mM PLP, D2O (99.9%).
as §1

DsaD/DsaE complex = DsaD/DsaE complex (Streptomyces scopuliridis, UniProt A0A0D5CCB2); assay: Steady-state kinetic analysis of H/D exchange of L-Ile by DsaD with partner protein DsaE; format: biochemical
DsaD/DsaE complex, sequence (A0A0D5CBB6 entry or part of it, one chain of several): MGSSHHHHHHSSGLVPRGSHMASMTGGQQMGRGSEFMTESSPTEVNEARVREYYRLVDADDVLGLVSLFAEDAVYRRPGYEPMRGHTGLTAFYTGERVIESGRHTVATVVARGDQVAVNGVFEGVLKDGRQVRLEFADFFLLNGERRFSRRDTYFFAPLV
Description: FIGS. 2A-2E. Steady-state kinetic analysis of H/D exchange by the Ile epimerization system. FIG. 2A. Steady-state kinetic analysis describing Cβ-deuteration^a of L-Ile under varied equivalents of partner enzyme DsaE. FIG. 2B. Steady-state kinetic analysis of Cβ-deuteration rates^a at a constant 1 mM L-Ile, measured against increasing equivalents of DsaE. FIG. 2C. Steady-state kinetic analysis of Cα-deuteration^a of L-Ile in the presence and absence of partner protein DsaE. FIG. 2D. Proposed mechanism of selective deuterium incorporation at Cα and Cβ catalyzed by dual protein catalysis. FIG. 2E. UV-visible spectrum of DsaD in the absence and presence of L-Ile.^a Measurement of initial rates was performed in duplicate at 24° C. Conditions: 0.1-10 mM L-Ile, 3 μM DsaD, 50 mM sodium phosphate (pD 8.4), and 0.1 mM PLP in D2O (99.9%). Proteins were exchanged into a 50 mM sodium phosphate-D2O (pD 8.4) solution prior to reaction initiation to minimize proton contamination (<1% H2O). Following quench with MeCN, crude reaction products were subjected to functionalization with Marfey's reagent (L-FDAA) to enable analysis by reverse-phase chromatography and quantification of isotope incorporation by mass spectrometry.
as §2, §3
Kinetic analysis of biocatalytic L-Ile deuteration: Initial rates of α- or β-deuteration were obtained by means of end-point assay using the quantitation protocol for analytical scale reactions as described above. All reagents were prepared in D2O (99.9% D) and protein stocks were dialyzed (3 exchanges over 3 h at 4° C.) into 50 mM sodium phosphate buffer dissolved in D2O (pD 8.4) using a slide-a-lyzer device with a 3,000 Da cutoff. Reactions were performed at 25° C. in 1 mL Eppendorf tubes. Michaelis constants (KM) for α- and β-deuteration of L-Ile were determined using the concentration range of 0.1-10 mM L-Ile using 3 μM DsaD. Partner protein (DsaE) concentrations were consistent within each experiment and separate experiments were performed using varied equivalents of partner protein (0-50 equiv). Initial velocities were measures in duplicate or triplicate for at least 6 different substrate concentrations for each set of conditions tested. Measurements of the impact of partner protein (DsaE) concentration on the initial rate of β-deuteration were carried out using 1 mM L-Ile, 3 μM DsaD and varying DsaE concentrations between 3 μM-600 μM (1-200 equiv). Under the minimal proton contamination conditions of this assay (99.9% D2O), Cα and Cβ deuteration are assumed to have occurred without back transfer to proton. The data were fit using the Michaelis-Menten equation implemented in Prism.

DsaD [6] = target: T1, DsaD; assay: Preparative-scale Cα-deuteration with DsaD clarified lysate in D2O; format: biochemical; details: DsaD lysate only
Description: as §6, §7
as §1, with “Supernatant was transferred to a clean beaker, the decanted supernatant was concentrated to remove acetone by rotary evaporation and loaded onto a preparative reverse-phase C18 column pre-equilibrated with water. Purification was performed via gradient elution on an Isolera One Flash Purification system (Biotage). Fractions bearing product (confirmed by UPLC-MS sampling of fraction tubes) were pooled and dried by rotary evaporation.” left out

[7] = substrate: CC[C@H](C)[C@H](N)C(=O)O; assay: H/D exchange of L-Ile with DsaD alone (steady-state kinetics); format: biochemical, Streptomyces scopuliridis; details: other: DsaD alone; pH 8.4
Description: as §4, §5

[8] = lower substrate loading (10 mM)

N[C@@H](Cc1ccccc1)C(=O)O [Phe, phenylalanine]
deuterium incorporation at Cβ (DsaD/E system): 91%
D-incorporation at Cα (DsaD/E complex [1]): high Cα deuteration
D-incorporation at Cβ (DsaD/E complex [1]): 67%

CC[C@H](C)[C@H](N)C(=O)O [Ile, isoleucine]
substrate binding to DsaD by UV-vis (DsaD [2]): appearance of a new absorbance band at 328 nm
major product of H/D exchange (DsaD/E complex [3]): 1:1 mixture of d2-2,3-L-Ile and d2-2,3-L-allo-Ile
kcat of Cα exchange (DsaD [4]; DsaD alone): 1.04 ± 0.04 s⁻¹
H/D exchange with just DsaD (DsaD [4]; excluding partner protein DsaE): a single H/D exchange event
deuteration at Cα (DsaD/E complex [5]; >600 mg scale): 95%
deuteration at Cβ (DsaD/E complex [5]; >600 mg scale): 93%
change of observed kcat or KM for Cα-deuteration (DsaD/DsaE complex; 150 μM DsaE (50:1 DsaE:DsaD)): did not significantly impact
change of kcat of Cβ-deuteration (DsaD/DsaE complex; 5 equiv. of DsaE (5:1 DsaE:DsaD) vs one equivalent): did not significantly change
decrease in observed KM of Cβ-deuteration (DsaD/DsaE complex; 5 equiv. vs one equivalent of DsaE): 11 fold
increase in kcat of Cβ-deuteration (DsaD/DsaE complex; 50 equiv. of DsaE (50:1 DsaE:DsaD)): ~4 fold
kcat of Cβ-deuteration (DsaD/DsaE complex; one equivalent of DsaE, 3 μM DsaD, D2O pD 8.4): 0.07 ± 0.007 s⁻¹
kcat of Cα-deuteration (DsaD/DsaE complex; with DsaE bound): 0.75 ± 0.01 s⁻¹

[2H][C@](N)(CC(C)C)C(=O)O [L-Leu-2-d]
D incorporation at Cα (DsaD [6]): 95%
ee (DsaD [6]): > 99 % ee

[2H]C([2H])(C(C)C)[C@H](N)C(=O)O [L-Leu-3,3-d2]
D incorporation at Cβ (DsaD/E system; after Cα washout with DsaD in water): 86%

N[C@@H](Cc1ccc(O)cc1)C(=O)O [Tyr, tyrosine]
deuterium incorporation at Cβ (DsaD/E system): 40%
D-incorporation at Cα (DsaD/E complex [1]): 99%
D-incorporation at Cβ (DsaD/E complex [1]): 27%
deuterium incorporation at Cα (DsaD/E complex [5]; [8]): 95%
deuterium incorporation at Cβ (DsaD/E complex [5]; [8]): 49%

B1: DsaD (Streptomyces scopuliridis) (protein)
chain: MGSSHHHHHHSSGLVPRGSHMASMTGGQQMGRGSEFMHIVTTPVARPLTAQERTERCAAPAFGTAFTEHMVSARWNPEQGWHDAELVPYGPLLLDPATVGLHYGQVVFEGLKAFRSHTGEVAVFRPDAHAERMRASARRLMMPEPPEELFLAAVDALVAQDQEWIPDDPGMSLYLRPILFASERTLALRPAREYRFLLVAFITEGYFGPAQRPVRVWVTDEYSRAAAGGTGAAKCAGNYAGSLLAQEEAQRKGCDQVVWLDPVERNWVEEMGGMNLFFVYEAGGSARLVTPPLTGSLLPGVTRDALLRLAPTLGVPVSEAPLSLEQWRADCASGAITEVFACGTAARISPVNEVSTKDGSWTIGAGAPAEGGVAAGEVTGRLSAALFGIQRGELPDSHSWMRPVSPARQSAIT
Km [7]: 700 ± 100 µM
